Entries after “also recorded” stand apart in the source; their conditions may differ.
Tests used:
selected transcripts = assay: Salmon calcitonin/PTS893 monkey study: real-time PCR of selected transcripts; type: in vivo, cynomolgus monkeys (Macaca fascicularis); settings: normalized to β-actin
Description: Based on the DNA microarray data a set of transcripts was chosen for quantitative analysis by real time-PCR(RT-PCR).
Briefly, the method exploits the SyBr Green dye which intercalates into double stranded DNA. Accumulation of PCR products is detected directly by monitoring the increase in fluorescence of the SyBr Green dye. Reactions are characterised by the point in time during cycling when amplification of a PCR product is first detected rather than the amount of PCR product accumulated after a fixed number of cycles. The higher the starting copy number of nucleic acid target, the sooner a significant increase in fluorescence is observed.
From each RNA sample, cDNA was made using an Applied Biosystem kit (Applied Biosystems # N808-0234) following the recommendation of the manufacturer. The PCR mixture was prepared using the SyBr Green Universal PCR Master Mix (Applied Biosystems #4309155) as follows: 5 μl cDNA template, 400 nM of each primer, 0.2 mM deoxynucleotide triphosphates, 1 mM MgC12 and 0.5 U Taq DNA polymerase, 5 μl SyBr Green PCR buffer and RNase free water up to a final volume of 50 μl. The PCR was performed using the ABI Prism 7700 Sequence Detection System, after a step at 95° C. for 10 min, the step-cycle program was performed for a total of 40 cycles as follows: 95° C. for 30 s, 60° C. for 1 min. A negative control was included: PCR reaction mixture with water in place of the cDNA sample.
The initial template concentration was determined based on the threshold cycle. […] Quantification was performed by calculating the unknown target concentration relative to an absolute standard and by normalizing to a validated endogenous control such as a housekeeping gene (β-actin). Results are presented as percentage of control, once the ratio between the numbers of molecule for the gene of interest divided by the number of molecule for beta-actin has been calculated.
Based on the DNA microarray data the following set of transcripts was chosen for quantitative analysis by RT-PCR: adhesion receptor CD44, angiopoietin, bone morphogenetic protein 5, carbonic anhydrase II, cartilage oligomeric matrix protein, cathepsin K, osteopontin, pre-pro-alpha-2 type I collagen, Spi-B and Y-box binding protein.

[1] = system: gene expression in organs; assay: Blind monkey trial of three peptides: gene expression profiling of organs on Affymetrix U95 chips; type: in vivo, cynomolgus monkeys; settings: 100 μg/animal/day sc, two weeks; listed as Peptide 1

Substance	Real Time PCR Treatment Effect: Y-box binding protein (bone) (36140_at) (selected transcripts; bone)	Real Time PCR Treatment Effect: Spi-B (35883_at) (selected transcripts)	Real Time PCR Treatment Effect: adhesion receptor CD44 (1372_at) (selected transcripts)	Real Time PCR Treatment Effect: angiopoietin-1 (1929_at) (selected transcripts)	Real Time PCR Treatment Effect: bone morphogenetic protein 5 (1831_at) (selected transcripts)	Real Time PCR Treatment Effect: carbonic anhydrase II (40095_at) (selected transcripts)	Real Time PCR Treatment Effect: cartilage oligomeric matrix protein (40161_at) (selected transcripts)	Real Time PCR Treatment Effect: cathepsin K (128_at) (selected transcripts)	Real Time PCR Treatment Effect: osteopontin (2092_s_at) (selected transcripts)	Real Time PCR Treatment Effect: pre-pro-alpha-2 type I collagen (32306_g_at) (selected transcripts)	Conclusions of the in vivo Profiling by the Data Mining Team: Function/Pathway [1]	Findings by the Data Mining Team: Adrenals (gene with direction) [1]	Findings by the Data Mining Team: Bone marrow (gene with direction) [1]	Findings by the Data Mining Team: Kidney (gene with direction) [1]	Findings by the Data Mining Team: Liver (gene with direction) [1]	Findings by the Data Mining Team: Pituitary (gene with direction) [1]	Findings by the Data Mining Team: Spleen (gene with direction) [1]	Findings by the Data Mining Team: Stomach (gene with direction) [1]	Findings by the Data Mining Team: Thymus (gene with direction) [1]	Findings by the Data Mining Team: Thyroid (gene with direction) [1]
Leu8, Asp10, Lysll, A1a16, G1n18, Thr33, A1a34 human PTH 1-34 [PTS893, Leu8, Asp10, Lysll, A1a16, G1n18, Thr33, A1a34 human PTH 1-34 [hPTH(1-34)]]	+26 % respect to control	−18 % respect to control	No change	No change	+18 % respect to control	No change	No change	No change	No change	+62 % respect to control	–	–	–	–	–	–	–	–	–	–
cyclo[4-(NH2—C2H4—NH—CO—O)Pro-Phg-DTrp-Lys-Tyr(4-Bzl)-Phe] [SOM230]	–	–	–	–	–	–	–	–	–	–	Anti-growth activity; also recorded: GI tract/pancreatic; also recorded: Immunosuppression	IGF2−; also recorded: somatostatin−; also recorded: insulin receptor+; also recorded: urocortin+	VIP− and peptide YY− and cyclin− and GAPDH−	Solute carrier protein 9++; also recorded: urocortin+; also recorded: IGF2−; also recorded: beta 2−; also recorded: THRα+	IGF2− and NMDA receptor+ and glutamate dehydrogenase+ and VIP and insulin− induced protein1 and STR5	IGFR1− and GH1/2− and CSH(L)− and TSH− and CHRH2− and synthase++ and Immunoglobulin−−	IGF2− and IGBP6− and insulin receptor− and urocortin+ and Ig− and ribosomal protein −− and Nk cells+	Gastrin+; also recorded: hypocretin+; also recorded: glutamate receptor+; also recorded: GABAB−	IGFBP1+ and MHC classII− and Ig− and FKBP12− and CD4− and defensin alpha1+,	NPY− and cyclins−− and ATPase calcium channel+ and somatostatin receptor 4−,

From patent US20130040882A1, “USE OF FIBROBLAST GROWTH FACTOR FRAGMENTS” (NOVARTIS AG, priority 2003, published 2013)
